Reference: patent US20060189634A1, “Fungicide mixtures” (priority 2003, published 2006)

Test system: Plasmopara viticola
Assay: Activity against peronospora of grapevines caused by Plasmopara viticola (protective spray on potted vines)
Format: in vivo
Conditions: individual active compound, grapevine leaves cv. Müller-Thurgau, untreated control 81% infection
Method: The active compounds, separately or jointly, were prepared as a stock solution comprising 0.25% by weight of active compound in acetone or DMSO. 1% by weight of the emulsifier Uniperol® EL (wetting agent having emulsifying and dispersant action based on ethoxylated alkylphenols) was added to this solution, and the mixture was diluted with water to the desired concentration.
Use example—Activity against peronospora of grapevines caused by Plasmopara viticola
Leaves of potted vines of the cultivar “Müller-Thurgau” were sprayed to runoff point with an aqueous suspension having the concentration of active compound stated below. The next day, the undersides of the leaves were inoculated with an aqueous zoospore suspension of Plasmopara viticola. The grapevines were then initially placed in a water-vapor-saturated chamber at 24° C. for 48 hours and then in a greenhouse at 20-30° C. for 5 days. After this period of time, the plants were again placed in a humid chamber for 16 hours to promote sporangiophore eruption. The extent of the development of the disease on the undersides of the leaves was then determined visually.
The visually determined percentages of infected leaf areas were converted into efficacies in % of the untreated control:
The efficacy (E) is calculated as follows using Abbot's formula: E=(1−α/β)−100 α corresponds to the fungicidal infection of the treated plants in % and β corresponds to the fungicidal infection of the untreated (control) plants in %
An efficacy of 0 means that the infection level of the treated plants corresponds to that of the untreated control plants; an efficacy of 100 means that the treated plants were not infected.
The expected efficacies of mixtures of active compounds were determined using Colby's formula (Colby, S. R. “Calculating synergistic and antagonistic responses of herbicide combinations”, Weeds, 15, 20-22, 1967) and compared with the observed efficacies.
Colby's formula: E=x+y−x·y/100 E expected efficacy, expressed in % of the untreated control, when using the mixture of the active compounds A and B at the concentrations a and b x efficacy, expressed in % of the untreated control, when using the active compound A at the concentration a y efficacy, expressed in % of the untreated control, when using the active compound B at the concentration b

| SMILES | Efficacy in % of the untreated control (1 ppm in the spray liquor) | Efficacy in % of the untreated control (4 ppm in the spray liquor) | Efficacy in % of the untreated control (16 ppm in the spray liquor) |
| --- | --- | --- | --- |
| N#Cc1sc2c(=O)c3ccccc3c(=O)c=2sc1C#N [II (dithianon), 5,10-dioxo-5,10-dihydronaphtho[2,3-b][1,4]dithiine-2,3-dicarbonitrile] | 1% | 13% | 13% |
| CC1CCN(c2c(-c3c(F)cccc3Cl)c(Cl)nc3ncnn23)CC1 [Comparison A] | – | 13% | – |
| CC1CCN(c2c(-c3c(F)cc(F)cc3F)c(Cl)nc3ncnn23)CC1 [I, 5-chloro-7-(4-methylpiperidin-1-yl)-6-(2,4,6-trifluorophenyl)-[1,2,4]triazolo[1,5-a]pyrimidine] | – | 51% | – |
| C[C@H](Nc1c(-c2c(F)cc(F)cc2F)c(Cl)nc2ncnn12)C(F)(F)F [Comparison B] | – | 13% | – |
